Broadly, the pIC50 is the negative decadic logarithm of the IC50, by convention in mol/L.

Consider three compounds from ChEMBL document CHEMBL1126344, “Substituted penta- and hexapeptides as potent inhibitors of herpes simplex virus type 2 ribonucleotide reductase” (Bioorg Med Chem Lett, 1992).

The test system of one assay is Human alphaherpesvirus 2. Put plainly: Relative potency to that of YAGAVVNDL against Herpes Simplex Virus type 2 ribonucleotide reductase.
A short description of assay [1]: Inhibitory activity of YAGAVVNDL against Herpes Simplex Virus type 2 (HSV-2) ribonucleotide reductase determined as control. The arrangement: species or system Human alphaherpesvirus 2.
The target of assay [2] is Ribonucleotide reductase (Herpes simplex virus type 2). Briefly: Compound was tested in vitro for inhibitory activity against Herpes Simplex Virus type 2 ribonucleotide reductase.

SMILES strings stand for the structures. pIC50: −log10 of the molar value. Non-standard residues stand in square brackets, D forms with d. Residues, ends and D or L forms follow the SMILES beside them. NBnTyr = O=C(O)[C@H](Cc1ccc(O)cc1)NCc1ccccc1

`CC(C)C[C@H](NC(=O)[C@H](CC(=O)O)NC(=O)[C@H](CC(N)=O)NC(=O)[C@@H](NC(=O)[C@@H](NC(=O)Cc1ccc2ccccc2c1)C(C)C)C(C)C)C(=O)O` returned a Relative potency in the assay with Human alphaherpesvirus 2 of 6. Also, the pIC50 in assay [1] was 4.52; in assay [2], 5.30.

On to `CC(C)C[C@H](NC(=O)[C@H](CC(=O)O)NC(=O)[C@H](CC(N)=O)NC(=O)[C@@H](NC(=O)[C@@H](NC(=O)C(Cc1ccccc1)Cc1ccc(O)cc1)C(C)C)C(C)C)C(=O)O` (stereo in doubt; form 1), for which the pIC50 in assay [1] was 5.02; in assay [2], 6.35.

Regarding `CC(C)C[C@H](NC(=O)[C@H](CC(=O)O)NC(=O)[C@H](CC(N)=O)NC(=O)[C@@H](NC(=O)[C@@H](NC(=O)[C@H](Cc1ccc(O)cc1)NCc1ccccc1)C(C)C)C(C)C)C(=O)O` (H-[NBnTyr]VVNDL-OH), the Relative potency in the assay on Human alphaherpesvirus 2 is 5. Also, the figures for the pIC50 in assay [1] and in assay [2] were 4.52 and 5.22, respectively.
